Article PMC12069643, “Structural insights into the selective recognition of RF-amide peptides by neuropeptide FF receptor 2” (EMBO Reports, 2025)

Columns and labels:
Assay type in all cases: cell-based
[1] = molecular target: T1, NPFFR2 mutants (Homo sapiens, UniProt Q9Y5X5, E289A); assay: GloSensor forskolin-stimulated cAMP assay, NPFFR2 mutants; settings: NPFFR2 E187ECL2A, HEK293T, three independent experiments
T1 construct: expressed in transfected cells; host or cells: HEK293T (pcDNA3.1 NPFFR2 mutants)
T1 sequence (Q9Y5X5 103-522 E289A): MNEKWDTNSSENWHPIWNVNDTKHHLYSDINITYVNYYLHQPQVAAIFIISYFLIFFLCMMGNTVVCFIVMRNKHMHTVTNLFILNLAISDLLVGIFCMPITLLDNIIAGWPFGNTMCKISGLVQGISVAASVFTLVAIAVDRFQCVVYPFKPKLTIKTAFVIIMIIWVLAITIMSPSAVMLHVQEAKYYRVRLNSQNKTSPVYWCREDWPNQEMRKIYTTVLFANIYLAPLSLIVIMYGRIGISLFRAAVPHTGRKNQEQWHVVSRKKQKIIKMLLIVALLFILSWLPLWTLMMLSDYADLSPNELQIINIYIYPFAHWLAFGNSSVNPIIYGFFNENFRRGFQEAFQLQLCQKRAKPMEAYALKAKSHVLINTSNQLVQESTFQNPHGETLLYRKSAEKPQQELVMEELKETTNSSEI
Source text: (§1) Figure 2 Interaction of hNPSF with NPFFR2. (A) Residues participating in the interactions between hNPSF and NPFFR2 in the transmembrane (TM) binding pocket are shown as sticks. Dashed lines indicate polar interactions and hydrogen bonds between residues. Zoomed-in views highlighting interactions of the C-terminal segment (residues −1 to −4, PQRF), middle segment (residues −5 to −8, FLFQ), and the N-terminal segment (residues −9 to −11, SQA) of hNPSF are enclosed in red, blue, and yellow boxes, respectively. (B) NPFFR2 residues interacting with hNPSF were mutated to alanine, and the impact of each mutation on the EC50 value (ΔpEC50) was investigated using a forskolin-stimulated cAMP assay, after confirming surface expression of each mutant by an ELISA-based surface expression assay (Appendix Fig. S5). Three independent experiments (with technical triplicates) were conducted for each mutant. The bar graphs represent the mean of ΔpEC50 values from each experiment, with error bars indicating SEM. Statistical analyses were performed using ordinary one-way ANOVA followed by Dunnett’s test, comparing to the wild-type response. ns (not significant, P > 0.05); *P < 0.05; **P < 0.01; ***P < 0.001. Source data are available online for this figure.
(§2) HEK293T cells were seeded at a density of 6 × 10^5 cells per well in a six-well cell culture plate (SPL) and co-transfected with expression plasmids encoding GloSensor™ and each NPFFR construct, using 1 µg to 4 µg of DNA per well according to the Lipofectamine™ 2000 Transfection Reagent (Invitrogen) protocol. After 48 h of incubation under standard conditions (37 °C, 5% CO2), the cells were detached using Accutase solution (Sigma-Aldrich) and washed with PBS. The cells were then pelleted by centrifugation, resuspended in CO2-independent medium (Gibco) supplemented with Firefly D-Luciferin (0.5 mg/ml, NanoLight), and distributed into a 96-well white plate (SPL). After a 2-hour incubation, serially diluted ligands and 0.5 μM forskolin were added to each well to detect ligand-induced signaling. Luminescence signals were measured using a Mithras LB940 instrument (Berthold) with a measurement time of 1 s per well.
(§3) Data from the GloSensor^TM cAMP signaling assays were analyzed using GraphPad Prism with a three-parameter logistic model to fit concentration-response curves for both wild-type (WT) and mutant receptors. Mutant expression levels and DNA amounts were adjusted to match WT conditions. ΔpEC50 values were calculated by subtracting the log EC50 of the WT receptor from that of each mutant. Results are presented as mean ± SEM from three independent biological replicates, each performed in duplicate or more. Error bars represent the SEM. Statistical significance was assessed using one-way ANOVA, followed by Dunnett’s tests comparisons to the WT receptor. Significance levels were reported as follows: ns (not significant, P > 0.05); *P < 0.05; **P < 0.01; ***P < 0.001.
(§4) Appendix Figure S5. GloSensorTM cAMP assays of mutants and wild-type NPFFR2.
(§5) The dose-response of cAMP assay data for each mutant (red) presented in Fig. 2B are compared against the wild-type NPFFR2 (blue). Each experiment was conducted after adjusting the mutant's expression level to that of the wild-type NPFFR2 (Appendix Fig. S3), and pcDNA3.1 was used to match the total amount of DNA transfected. Data points represent mean values from three independent experiments (each with technical triplicate), with error bars indicating SEM. Raw data were normalized to the vehicle -treated (0%) and 0.5 μM forskolin-treated (100%) responses.
(§6) (% of forskolin stimulation) […]

[2] = molecular target: T2, NPFFR2 mutants (Homo sapiens, UniProt Q9Y5X5, D207A); assay: as above; settings: NPFFR2 D1052.64A, HEK293T, three independent experiments
T2 construct: expressed in transfected cells; host or cells: HEK293T (pcDNA3.1 NPFFR2 mutants)
T2 sequence (Q9Y5X5 103-522 D207A): as the sequence (Q9Y5X5 103-522 E289A) above, with D105A, A187E counted along it
Source text: as §1, §2, §3, §4, §5, §6

[3] = molecular target: T3, NPFFR2 mutants (Homo sapiens, UniProt Q9Y5X5, Q227A); assay: as above; settings: NPFFR2 Q1253.32A, HEK293T, three independent experiments
T3 construct: expressed in transfected cells; host or cells: HEK293T (pcDNA3.1 NPFFR2 mutants)
T3 sequence (Q9Y5X5 103-522 Q227A): as the sequence (Q9Y5X5 103-522 E289A) above, with Q125A, A187E counted along it
Source text: as §1, §2, §3, §4, §5, §6

[4] = molecular target: T4, NPFFR2 mutants (Homo sapiens, UniProt Q9Y5X5, V231A); assay: as above; settings: NPFFR2 V1293.36A, HEK293T, three independent experiments
T4 construct: expressed in transfected cells; host or cells: HEK293T (pcDNA3.1 NPFFR2 mutants)
T4 sequence (Q9Y5X5 103-522 V231A): as the sequence (Q9Y5X5 103-522 E289A) above, with V129A, A187E counted along it
Source text: as §1, §2, §3, §4, §5, §6

[5] = molecular target: T5, NPFFR2 mutants (Homo sapiens, UniProt Q9Y5X5, T322A); assay: as above; settings: NPFFR2 T2205.39A, HEK293T, three independent experiments
T5 construct: expressed in transfected cells; host or cells: HEK293T (pcDNA3.1 NPFFR2 mutants)
T5 sequence (Q9Y5X5 103-522 T322A): as the sequence (Q9Y5X5 103-522 E289A) above, with A187E, T220A counted along it
Source text: as §1, §2, §3, §4, §5, §6

[6] = molecular target: T6, NPFFR2 mutants (Homo sapiens, UniProt Q9Y5X5, H421A); assay: as above; settings: NPFFR2 H3197.39A, HEK293T, three independent experiments
T6 construct: expressed in transfected cells; host or cells: HEK293T (pcDNA3.1 NPFFR2 mutants)
T6 sequence (Q9Y5X5 103-522 H421A): as the sequence (Q9Y5X5 103-522 E289A) above, with A187E, H319A counted along it
Source text: as §1, §2, §3, §4, §5, §6

[7] = molecular target: T7, NPFFR2 mutants (Homo sapiens, UniProt Q9Y5X5, E310A); assay: as above; settings: NPFFR2 E20845.52A, HEK293T, three independent experiments
T7 construct: expressed in transfected cells; host or cells: HEK293T (pcDNA3.1 NPFFR2 mutants)
T7 sequence (Q9Y5X5 103-522 E310A): as the sequence (Q9Y5X5 103-522 E289A) above, with A187E, E208A counted along it
Source text: as §1, §2, §3, §4, §5, §6

[8] = molecular target: T8, NPFFR2 mutants (Homo sapiens, UniProt Q9Y5X5, W213A); assay: as above; settings: NPFFR2 W11123.50A, HEK293T, three independent experiments
T8 construct: expressed in transfected cells; host or cells: HEK293T (pcDNA3.1 NPFFR2 mutants)
T8 sequence (Q9Y5X5 103-522 W213A): as the sequence (Q9Y5X5 103-522 E289A) above, with W111A, A187E counted along it
Source text: as §1, §2, §3, §4, §5, §6

[9] = molecular target: T9, human NPFFR2 (Homo sapiens, UniProt Q9Y5X5); assay: GloSensor forskolin-stimulated cAMP assay, NPFFR2 wild-type; settings: HEK293T, 0.5 μM forskolin; for Emax: HEK-293T
T9 construct: expressed in transfected cells; host or cells: HEK293T (pcDNA3.1 NPFFR2)
T9 sequence (Q9Y5X5 103-522): as the sequence (Q9Y5X5 103-522 E289A) above, with A187E counted along it
Procedure: Figure 1 Structural analysis and downstream signaling of NPFFR2. (A) The concentration-dependent response of various agonists on NPFFR2 is measured using a forskolin-stimulated cAMP assay. Data points represent mean values from three independent experiments (each with technical triplicate), with error bars indicating SEM (standard error of the mean). Raw data were normalized to the vehicle-treated (0%) and 0.5 μM forskolin-treated (100%) responses. […] (C) The extracellular loop 2 (ECL2, pink) and N-terminus (Nt, blue) of NPFFR2 are depicted using a cartoon model. […] Source data are available online for this figure.
as §2, §3

[10] = NPFFR2 wild type (50% DNA treated), three independent experiments

Emax ([1]; HEK-293T): 75 ± 3%
EC50 [1]: 1 nM
Emax ([2]; HEK-293T): 69 ± 4%
EC50 [2]: 12.6 nM
Emax ([3]; HEK-293T): 59 ± 4%
EC50 [3]: 1260 nM
Emax ([4]; HEK-293T): 79 ± 3%
EC50 [4]: 126 nM
Emax ([5]; HEK-293T): 70 ± 5%
EC50 [5]: 631 nM
Emax ([6]; HEK-293T): 57 ± 2%
EC50 [6]: 63.1 nM
Emax ([7]; HEK-293T): 29 ± 11%
EC50 [7]: 3980 nM
Emax ([8]; HEK-293T): 78 ± 5%
EC50 [8]: 1260 nM
Emax [9, 10]: 56 ± 2%
Emax ([9]; NPFFR2 wild-type (100% DNA treated for hNPSF), mean of three independent experiments ± SEM): 77 ± 3%
EC50 [9, 10]: 6.31 nM
EC50 ([9]; NPFFR2 wild-type (100% DNA treated for hNPSF), three independent experiments): 3.16 nM
Compound: CC(C)C[C@H](NC(=O)[C@H](Cc1ccccc1)NC(=O)[C@H](C)NC(=O)[C@H](CCC(N)=O)NC(=O)[C@@H](N)CO)C(=O)N[C@@H](Cc1ccccc1)C(=O)N[C@@H](CCC(N)=O)C(=O)N1CCC[C@H]1C(=O)N[C@@H](CCC(N)=O)C(=O)N[C@@H](CCCNC(=N)N)C(=O)N[C@@H](Cc1ccccc1)C(N)=O [hNPSF]
